From patent US11034650B2, “Compounds useful for treating a Mannheimia haemolytica or Histophilus somni infection” (Intervet Inc., priority 2016, dated 2021)
In brackets after ≈: the same amount, converted by molar mass.

Tests used:
Type in all cases: cell-based
[1] = system: Mannheimia haemolytica MH 6357 (M7/2, reference strain, cattle infection strain); test: MIC, broth-microdilution (CLSI VET01-A4), strain MH 6357; details: Mannheimia haemolytica strain MH 6357, broth-microdilution; unit assumed
Summary of the method: (§1)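 Doubling dilution series in trays; visual read, MIC = lowest conc. with no visible turbidity; interpretation per CLSI VET01-S3.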

[2] = system: Mannheimia haemolytica MH 6374 (ATCC 33396, reference strain); test: MIC, broth-microdilution (CLSI VET01-A4), strain MH 6374; details: Mannheimia haemolytica strain MH 6374, broth-microdilution; unit assumed
Summary of the method: as §1

[3] = system: Mannheimia haemolytica MH 10720 (154, BRD field isolate); test: MIC, broth-microdilution (CLSI VET01-A4), strain MH 10720; details: Mannheimia haemolytica strain MH 10720, broth-microdilution; unit assumed
Summary of the method: as §1

[4] = system: Mannheimia haemolytica MH 12587 (1071, BRD field isolate, macrolide-resistance: erm+, E+); test: MIC, broth-microdilution (CLSI VET01-A4), strain MH 12587; details: Mannheimia haemolytica strain MH 12587, broth-microdilution; unit assumed
Summary of the method: as §1

[5] = system: Mannheimia haemolytica MH 13065 (XB0446-6003.9, BRD field isolate); test: MIC, broth-microdilution (CLSI VET01-A4), strain MH 13065; details: Mannheimia haemolytica strain MH 13065, broth-microdilution; unit assumed
Summary of the method: as §1

[6] = system: Mannheimia haemolytica MH 13093 (XB0472-6014.1, BRD field isolate); test: MIC, broth-microdilution (CLSI VET01-A4), strain MH 13093; details: Mannheimia haemolytica strain MH 13093, broth-microdilution; unit assumed
Summary of the method: as §1

[7] = system: Pasteurella multocida PM 6267 (P 2225 (L386), reference strain, mouse infection strain); test: MIC, broth-microdilution (CLSI VET01-A4), strain PM 6267; details: Pasteurella multocida strain PM 6267, broth-microdilution; unit assumed
Summary of the method: as §1

[8] = system: Pasteurella multocida PM 6391 (ATCC 43137, reference strain); test: MIC, broth-microdilution (CLSI VET01-A4), strain PM 6391; details: Pasteurella multocida strain PM 6391, broth-microdilution; unit assumed
Summary of the method: as §1

[9] = system: Pasteurella multocida PM 10775 (080130003051, BRD field isolate); test: MIC, broth-microdilution (CLSI VET01-A4), strain PM 10775; details: Pasteurella multocida strain PM 10775, broth-microdilution; unit assumed
Summary of the method: as §1

[10] = system: Pasteurella multocida PM 12080 (IV102277-0093, BRD field isolate); test: MIC, broth-microdilution (CLSI VET01-A4), strain PM 12080; details: Pasteurella multocida strain PM 12080, broth-microdilution; unit assumed
Summary of the method: as §1

Row | SMILES | MIC MH 6357 [1] [µg/mL] | MIC MH 6374 [2] [µg/mL] | MIC MH 10720 [3] [µg/mL] | MIC MH 12587 [4] [µg/mL] | MIC MH 13065 [5] [µg/mL] | MIC MH 13093 [6] [µg/mL] | MIC PM 6267 [7] [µg/mL] | MIC PM 6391 [8] [µg/mL] | MIC PM 10775 [9] [µg/mL] | MIC PM 12080 [10] [µg/mL]
1 | CC(C)(C)CNCc1ccc(C#Cc2ccc(C(=O)N[C@@H](CO)C(=O)NO)cc2)cc1 [Compound 136] | 3.1 (≈ 7.32 µM) | 12.5 (≈ 29.5 µM) | 1.6 (≈ 3.78 µM) | 25 (≈ 59 µM) | 12.5 (≈ 29.5 µM) | 25 (≈ 59 µM) | 0.4 (≈ 0.944 µM) | 0.8 (≈ 1.89 µM) | ≤ 0.1 | 0.8 (≈ 1.89 µM)
2 | CC(C)[C@H](NC(=O)c1ccc(C#Cc2ccc(CNC3CCCCC3)cc2)cc1)C(=O)NO [Compound 208] | 12.5 (≈ 27.9 µM) | 12.5 (≈ 27.9 µM) | 3.1 (≈ 6.93 µM) | 25 (≈ 55.9 µM) | 12.5 (≈ 27.9 µM) | 12.5 (≈ 27.9 µM) | 0.2 (≈ 0.447 µM) | 0.4 (≈ 0.894 µM) | ≤ 0.1 | 0.2 (≈ 0.447 µM)
3 | CC(C)([C@H](NC(=O)c1ccc(C#Cc2ccc(CNCc3ccncc3)cc2)cc1)C(=O)NO)S(C)(=O)=O [C.261] | 0.4 (≈ 0.748 µM) | 0.4 (≈ 0.748 µM) | ≤ 0.1 | 0.8 (≈ 1.5 µM) | 0.4 (≈ 0.748 µM) | 0.4 (≈ 0.748 µM) | ≤ 0.1 | ≤ 0.1 | ≤ 0.1 | ≤ 0.1
4 | CCNCc1ccc(C#Cc2ccc(C(=O)N[C@@H](CO)C(=O)NO)cc2)cc1 [Compound 151] | 6.3 (≈ 16.5 µM) | 25 (≈ 65.5 µM) | 3.1 (≈ 8.13 µM) | 25 (≈ 65.5 µM) | 12.5 (≈ 32.8 µM) | 25 (≈ 65.5 µM) | 3.1 (≈ 8.13 µM) | 12.5 (≈ 32.8 µM) | ≤ 0.1 | 6.3 (≈ 16.5 µM)
5 | CON=C(C)C(NC(=O)c1ccc(C#Cc2ccc(CNCc3ccncc3)cc2)cc1)C(=O)NO (centres unmarked) [Compound 415] | 0.4 (≈ 0.824 µM) | 0.8 (≈ 1.65 µM) | 0.4 (≈ 0.824 µM) | 0.2 (≈ 0.412 µM) | 0.4 (≈ 0.824 µM) | 0.4 (≈ 0.824 µM) | 1.6 (≈ 3.3 µM) | ≤ 0.1 | ≤ 0.1 | ≤ 0.1
6 | CC(C)(O)C(NC(=O)c1ccc(C#Cc2ccc(CNCC3CCCO3)cc2)cc1)C(=O)NO (centres unmarked) [Compound 234] | 6.3 (≈ 13.5 µM) | 3.1 (≈ 6.66 µM) | 0.4 (≈ 0.859 µM) | 6.3 (≈ 13.5 µM) | 3.1 (≈ 6.66 µM) | 6.3 (≈ 13.5 µM) | ≤ 0.1 | 0.4 (≈ 0.859 µM) | ≤ 0.1 | 0.2 (≈ 0.43 µM)
7 | CCNCc1ccc(C#Cc2ccc(C(=O)N[C@H](C(=O)NO)[C@@H](C)CC)cc2)cc1 [Compound 176] | 3.1 (≈ 7.61 µM) | 6.3 (≈ 15.5 µM) | 3.1 (≈ 7.61 µM) | 12.5 (≈ 30.7 µM) | 6.3 (≈ 15.5 µM) | 12.5 (≈ 30.7 µM) | 0.8 (≈ 1.96 µM) | 3.1 (≈ 7.61 µM) | ≤ 0.1 | 1.6 (≈ 3.93 µM)
8 | CC(C)([C@H](NC(=O)c1ccc(C#Cc2ccc(CNCC(F)(F)F)nc2)cc1)C(=O)NO)S(C)(=O)=O [Compound 355] | 0.8 (≈ 1.52 µM) | 1.6 (≈ 3.04 µM) | ≤ 0.1 | 1.6 (≈ 3.04 µM) | 0.8 (≈ 1.52 µM) | 1.6 (≈ 3.04 µM) | 0.8 (≈ 1.52 µM) | 0.2 (≈ 0.38 µM) | ≤ 0.1 | ≤ 0.1
9 | CCNCc1ccc(C#Cc2ccc(C(=O)N[C@H](C(=O)NO)C(C)C)cc2)cc1 [Compound 201] | 12.5 (≈ 31.8 µM) | 6.3 (≈ 16 µM) | 3.1 (≈ 7.88 µM) | 12.5 (≈ 31.8 µM) | 6.3 (≈ 16 µM) | 6.3 (≈ 16 µM) | 0.4 (≈ 1.02 µM) | 0.8 (≈ 2.03 µM) | ≤ 0.1 | 0.4 (≈ 1.02 µM)
10 | CCCNCc1ccc(C#Cc2ccc(C(=O)N[C@H](C(=O)NO)C(C)=NOC)cc2)cc1 [Compound 387] | 6.3 (≈ 14.4 µM) | 6.3 (≈ 14.4 µM) | 3.1 (≈ 7.1 µM) | 1.6 (≈ 3.67 µM) | 6.3 (≈ 14.4 µM) | 3.1 (≈ 7.1 µM) | 25 (≈ 57.3 µM) | 0.4 (≈ 0.916 µM) | 1.6 (≈ 3.67 µM) | 0.2 (≈ 0.458 µM)
11 | CC(C)([C@H](NC(=O)c1ccc(C#Cc2ccc(CNCc3ccncc3)s2)cc1)C(=O)NO)S(C)(=O)=O [Compound 317] | 0.2 (≈ 0.37 µM) | 0.4 (≈ 0.74 µM) | ≤ 0.1 | 0.8 (≈ 1.48 µM) | 0.4 (≈ 0.74 µM) | 0.4 (≈ 0.74 µM) | 0.2 (≈ 0.37 µM) | ≤ 0.1 | ≤ 0.1 | ≤ 0.1
